Measurements from patent US20060122148A1, “High affinity receptors for helicobacter pylori and use thereof” (priority 2002, published 2006).

Key:
H. pylori strain J99 = experiment: Chromatogram binding assay of 35S-labeled H. pylori to gangliosides on thin-layer plates; set-up: species or system Helicobacter pylori
[1] = tested on: H. pylori strain CCUG 17874; experiment: as above; set-up: species or system Helicobacter pylori; details: for Binding to ganglioside (in words): strain CCUG 17874, thin-layer plates, non-binding = no binding at 4 μg; for Amount at which binding was saturated: dilutions of gangliosides on thin-layer plates
[2] = tested on: H. pylori strain CCGU 17874; experiment: Overlay of TLC plates with radiolabeled bacteria (S-3-PG derivatives, glycolipids, neoglycolipids); assay type: binding, Helicobacter pylori; details: for Binding of H. pylori on TLC plates (in words): overlay with radiolabeled bacteria
H. pylori strain 032 = experiment: Overlay of TLC plates with radiolabeled bacteria (PGCs); assay type: binding, Helicobacter pylori; details: 032 strain from broth

Row | Substance | Binding to ganglioside (in words) (H. pylori strain J99) | Binding to ganglioside (in words) [1] | other results
1 | Galα3(Fucα2)Galβ4GlcNAcβ6(NeuAcα3Galβ4GlcNAcβ3)Galβ4GlcNAcβ3Galβ4Glcβ1Cer [No. 19] | recognized | recognized | Detection level ([1]; thin-layer plates): approximately 100 pmole
2 | NeuAcα3Galβ3(Fucα4)GlcNAcβ3Galβ4Glcβ1Cer [No. 6] | occasional binding | did not recognize | 
3 | NeuAcα3Galβ4(Fucα3)GlcNAcβ3Galβ4(Fucα3)GlcNAcβ3Galβ4Glcβ1Cer [No. 13] |  | recognized | Amount at which binding was saturated [1]: approximately 100 pmole
4 | NeuAcα3Galβ4GlcNAcβ3Galβ4(Fucα3)GlcNAcβ3Galβ4Glcβ1Cer [No. 12] |  | recognized | 
5 | NeuAcα3Galβ4GlcNAcβ3Galβ4Glc-HDA (or -branched lipid) |  |  | Binding of H. pylori on TLC plates (in words) [2]: active
6 | NeuAcα3Galβ4GlcNAcβ3Galβ4GlcNAcβ3Galβ4GlcNAcβ3Galβ4Glcβ1Cer [No. 10] |  | recognized | 
7 | NeuAcα3Galβ4GlcNAcβ3Galβ4GlcNAcβ3Galβ4Glcβ1Cer [No. 8] | recognized | recognized | Amount at which binding was saturated [1]: approximately 100 pmole; Relative binding affinity ([1]; strain CCUG 17874, serial dilutions 1-100 pmole on thin-layer plates, densitometry): comparable to the binding of cholera toxin B-subunits to the GM1 ganglioside; Binding of H. pylori on TLC plates (in words) [2]: stronger than binding to sialoneotetraosylceramide
8 | NeuAcα3Galβ4GlcNAcβ3Galβ4Glcβ1Cer [No. 2] |  |  | Binding of H. pylori on TLC plates (in words) (H. pylori strain 032): do not bind; Sensitivity of detection ([2]; some H. pylori batches): 0.3-0.4 pmol/mm^2
9 | NeuAcα3Galβ4GlcNAcβ6(NeuAcα3Galβ4GlcNAcβ3)Galβ4GlcNAcβ3Galβ4Glcβ1Cer [No. 16] | recognized | recognized | 
10 | NeuAcα3Galβ4Glcβ1Cer [No. 1] |  | inactive | 
